Measured values taken from patent US8461328B2, “Tricyclic heterocyclic compounds, compositions and methods of use thereof” (Genentech, Inc., priority 2010, dated 2013).

How the values were obtained:
Assay type in all cases: biochemical
[1] = target: T1, JAK1 (Homo sapiens, UniProt P23458); test: JAK1 inhibition (Table 4); conditions: read-out: JAK1 Ki
T1 construct: made in house; host or cells: SF9 insect cells (baculovirus)

[2] = target: T2, JAK2 (Homo sapiens, UniProt O60674); test: JAK2 inhibition (Table 4); conditions: read-out: JAK2 Ki
T2 construct: made in house; host or cells: SF9 insect cells (baculovirus)

[3] = target: T3, JAK3 (Homo sapiens, UniProt P52333); test: JAK3 inhibition (Table 4); conditions: read-out: JAK3 Ki
T3 construct: made in house; host or cells: SF9 insect cells (baculovirus)

[4] = target: T4, TYK2 (Homo sapiens, UniProt P29597); test: TYK2 inhibition (Table 4)
T4 construct: made in house; host or cells: SF9 insect cells (baculovirus)
T4 sequence (P29597 873-1187): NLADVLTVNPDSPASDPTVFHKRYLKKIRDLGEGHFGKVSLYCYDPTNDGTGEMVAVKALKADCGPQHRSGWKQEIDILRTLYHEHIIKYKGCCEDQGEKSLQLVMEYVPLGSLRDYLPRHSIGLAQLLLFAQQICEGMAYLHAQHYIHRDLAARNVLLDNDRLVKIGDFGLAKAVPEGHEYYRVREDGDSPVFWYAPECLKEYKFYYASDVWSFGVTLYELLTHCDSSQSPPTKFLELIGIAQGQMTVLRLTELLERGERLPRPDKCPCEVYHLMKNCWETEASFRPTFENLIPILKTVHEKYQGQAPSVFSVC

T2 sequence (O60674 812-1132): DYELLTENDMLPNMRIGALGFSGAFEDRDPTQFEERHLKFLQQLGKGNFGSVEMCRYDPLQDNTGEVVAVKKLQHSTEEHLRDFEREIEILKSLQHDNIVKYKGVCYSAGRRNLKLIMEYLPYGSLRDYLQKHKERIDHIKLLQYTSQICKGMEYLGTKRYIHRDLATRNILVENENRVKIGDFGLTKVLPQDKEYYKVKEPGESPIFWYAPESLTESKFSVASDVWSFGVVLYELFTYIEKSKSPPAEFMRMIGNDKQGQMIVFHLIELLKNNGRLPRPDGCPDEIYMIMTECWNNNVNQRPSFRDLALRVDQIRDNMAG
T1 sequence (P23458 852-1154): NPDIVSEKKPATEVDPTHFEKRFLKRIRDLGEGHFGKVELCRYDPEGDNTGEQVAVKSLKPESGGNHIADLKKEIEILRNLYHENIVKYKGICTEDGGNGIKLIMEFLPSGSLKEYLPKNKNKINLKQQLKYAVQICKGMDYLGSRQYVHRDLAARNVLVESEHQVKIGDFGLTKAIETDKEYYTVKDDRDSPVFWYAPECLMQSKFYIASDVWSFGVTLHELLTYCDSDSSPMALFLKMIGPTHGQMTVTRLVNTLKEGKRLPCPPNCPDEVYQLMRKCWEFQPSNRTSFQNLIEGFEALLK
T3 sequence (P52333 783-1124): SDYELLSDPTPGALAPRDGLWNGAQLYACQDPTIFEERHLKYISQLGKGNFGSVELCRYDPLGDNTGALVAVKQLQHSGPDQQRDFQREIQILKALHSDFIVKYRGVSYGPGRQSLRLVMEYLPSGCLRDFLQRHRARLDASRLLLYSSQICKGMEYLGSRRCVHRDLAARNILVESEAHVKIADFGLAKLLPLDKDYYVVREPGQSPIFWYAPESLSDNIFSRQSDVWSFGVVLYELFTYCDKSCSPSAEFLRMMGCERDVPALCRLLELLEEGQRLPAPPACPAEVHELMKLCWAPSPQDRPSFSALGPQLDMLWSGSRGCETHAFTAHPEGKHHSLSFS

Row | Ki [1] [nM] | Ki [2] [nM] | Ki [3] [nM] | Ki [4] [nM] | SMILES
1 | 20.2 | 296 | 561 | 806 | COCC(=O)NCCc1nc2cnc3[nH]ccc3c2n1C1CCCOC1 (racemic) [Example 860, 2-Methoxy-N-{2-[1-(tetrahydro-pyran-3-yl)-1,6-dihydro-1,3,5,6-tetraaza-as-indacen-2-yl]-ethyl}-acetamide]
2 | 3.37 | 42.8 | 7.83 | 176 | Cc1noc(CN2CCC(n3c(C(C)O)nc4cnc5[nH]ccc5c43)C(F)C2)n1 (stereo not drawn) [Example 912, 1-{1-[3-Fluoro-1-(3-methyl-[1,2,4]oxadiazol-5-ylmethyl)-piperidin-4-yl]-1,6-dihydro-1,3,5,6-tetraaza-as-indacen-2-yl}-ethanol]
3 | 17.2 | 19.5 | 24.6 | 101 | N#C[C@@H]1C[C@@H]1C(=O)N1CCC[C@@H](n2cnc3cnc4[nH]ccc4c32)C1 [Example 340, (1R,2S)-2-[(R)-3-(6H-1,3,5,6-Tetraaza-as-indacen-1-yl)-piperidine-1-carbonyl]-cyclopropanecarbonitrile]
4 | 6.11 | 13.3 | 59.7 | 35 | FC(F)(F)CNC1CCC(n2cnc3cnc4[nH]ccc4c32)C1 (racemic) [Example 717, [3-(6H-1,3,5,6-tetraaza-as-indacen-1-yl)-cyclopentyl]-(2,2,2-trifluoro-ethyl)-amine]
5 | 4.82 | 3.35 | 211 | 43.7 | CN([C@H]1CC[C@H](n2cnc3cnc4[nH]ccc4c32)CC1)S(C)(=O)=O [Example 142, Trans N-Methyl-N-[4-(6H-1,2,3,5,6-tetraaza-as-indacen-1-yl)-cyclohexyl]-methanesulfonamide]
6 | 17.5 | 138 | 48.1 | 526 | CN1CC(c2nc3cnc4[nH]ccc4c3n2C2CCN(CCC#N)CC2)CC1=O (racemic) [Example 384, 3-{4-[2-(1-Methyl-5-oxo-pyrrolidin-3-yl)-6H-1,3,5,6-tetraaza-as-indacen-1-yl]-piperidin-1-yl}-propionitrile]
7 | 7.53 | 12.1 | 48.1 | 260 | c1cncc(CN2CCC(n3nnc4cnc5[nH]ccc5c43)CC2)c1 [Example 282, 1-(1-Pyridin-3-ylmethyl-piperidin4-yl)-1,6-dihydro-1,2,3,5,6-pentaaza-as-indacene]
8 | 35.9 | 102 | 182 | 330 | c1cncc(CN2CCC[C@@H](n3cnc4cnc5[nH]ccc5c43)C2)c1 [Example 39, 1-((R)-1-Pyridin-3-ylmethyl-piperidin-3-yl)-1,6-dihydro-1,3,5,6-tetraaza-as-indacene]
9 | 16.5 | 41.6 | 173 | 230 | N#Cc1cccc(CNC2CC(n3cnc4cnc5[nH]ccc5c43)C2)c1 (stereo not drawn) [Example 329, 3-{[3-(6H-1,3,5,6-Tetraaza-as-indacen-1-yl)-cyclobutylamino]-methyl}-benzonitrile]
10 | 3.91 | 5.32 | 282 | 30.7 | O=S(=O)(CCO)N1CCC(n2cnc3cnc4[nH]ccc4c32)CC1 [Example 194, 2-[4-(6H-1,2,3,5,6-Tetraaza-as-indacen-1-yl)-piperidine-1-sulfonyl]-ethanol]
11 | 79.8 | 403 | 334 | 215 | CC(O)c1nc2cnc3[nH]ccc3c2n1C1CC2CCC1O2 (single isomer, unassigned) [Example 936, (endo)-1-[1-(7-Oxa-bicyclo[2.2.1]hept-2-yl)-1,6-dihydro-1,3,5,6-tetraaza-as-indacen-2-yl]-ethanol]
12 | 6.23 | 213 | 525 | 364 | O=C(NCCc1nc2cnc3[nH]ccc3c2n1[C@H]1CCCOC1)C1CC1 [Example 857, (S)-Cyclopropanecarboxylic acid {2-[1-(tetrahydro-pyran-3-yl)-1,6-dihydro-1,3,5,6-tetraaza-as-indacen-2-yl]-ethyl}-amide]
13 | 9.93 | 38.5 | 37.6 | 627 | CNC(=O)Cc1nc2cnc3[nH]ccc3c2n1C1CCN(Cc2ccccc2)CC1 [Example 21, 2-[1-(1-Benzyl-piperidin-4-yl)-1,6-dihydro-1,2,3,5,6-tetraaza-as-indacen-2-yl]-N-methyl acetamide]
14 | 9.45 | 383 | 117 | 1380 | C[C@@H](O)c1nc2cnc3[nH]ccc3c2n1C1CCN(Cc2cnn(C)c2)CC1 [Example 818, (R)-1-{1-[1-(1-Methyl-1H-pyrazol-4-ylmethyl)-piperidin-4-yl]-1,6-dihydro-1,3,5,6-tetraaza-as-indacen-2-yl}-ethanol]
15 | 15.7 | 30.3 | 80.4 | 329 | CC1CN(S(C)(=O)=O)CCC1n1cnc2cnc3[nH]ccc3c21 (racemic) [Example 344, 1-(1-Methanesulfonyl-3-methyl-piperidin-4-yl)-1,6-dihydro-1,3,5,6-tetraaza-as-indacene]
16 | 8.9 | 12.5 | 210 | 97.7 | N#Cc1cccc(CN2CC[C@@H](n3cnc4cnc5[nH]ccc5c43)C2)c1 [Example 436, 3-[(R)-3-(6H-1,3,5,6-Tetraaza-as-indacen-1-yl)-pyrrolidin-1-ylmethyl]-benzonitrile]
17 | 5.67 | 46.6 | 162 | 381 | CCN1CC[C@@H](n2c(CCNS(=O)(=O)C3CC3)nc3cnc4[nH]ccc4c32)[C@@H](F)C1 [Example 809, Cyclopropanesulfonic acid {2-[1-((3S,4R)-1-ethyl-3-fluoro-piperidin-4-yl)-1,6-dihydro-1,3,5,6-tetraaza-as-indacen-2-yl]-ethyl}-amide]
18 | 25.6 | 110 | 74.6 | 194 | O=C(Cc1nc2cnc3[nH]ccc3c2n1C1CCCOC1)NC1CCCC1 (racemic) [Example 974, N-Cyclopentyl-2-[1-(tetrahydro-pyran-3-yl)-1,6-dihydro-1,3,5,6-tetraaza-as-indacen-2-yl]-acetamide]
19 | 16.1 | 44 | 25.7 | 76.8 | CN(C)C(=O)CCc1nc2cnc3[nH]ccc3c2n1C1CCCCC1 [Example 803, 3-(1-Cyclohexyl-1,6-dihydro-1,3,5,6-tetraaza-as-indacen-2-yl)-N,N-dimethyl-propionamide]
20 | 5.61 | 15.5 | 163 | 106 | c1ccc(CCN2CCC(n3cnc4cnc5[nH]ccc5c43)CC2)cc1 [Example 80, 1-(1-Phenethyl-piperidin-4-yl)-1,6-dihydro-1,3,5,6-tetraaza-as-indacene]
21 | 3.64 | 29.5 | 50.3 | 185 | N#CCCN1CCC(n2c(CCNC(=O)C3CC3)nc3cnc4[nH]ccc4c32)CC1 [Example 377, Cyclopropanecarboxylic acid (2-{1-[1-(2-cyano-ethyl)-piperidin-4-yl]-1,6-dihydro-1,3,5,6-tetraaza-as-indacen-2-yl}-ethyl)-amide]
22 | 6.78 | 62.9 | 130 | 519 | CCN1CC[C@@H](n2c(CCNC(C)=O)nc3cnc4[nH]ccc4c32)[C@@H](F)C1 [Example 811, N-{2-[1-((3S,4R)-1-Ethyl-3-fluoro-piperidin-4-yl)-1,6-dihydro-1,3,5,6-tetraaza-as-indacen-2-yl]-ethyl}-acetamide]
23 | 7.48 | 6.5 | 16.6 | 35.4 | CS(=O)(=O)N1CCC[C@@H](n2cnc3cnc4[nH]ccc4c32)C1 [Example 9, 1-((R)-1-Methanesulfonyl-piperidin-3-yl)-1,6-dihydro-1,2,3,5,6-tetraaza-as-indacene]
24 | 39.9 | 97.6 | 344 | 338 | Cn1ncc2c1CC[C@H](n1cnc3cnc4[nH]ccc4c31)C2 [Example 954, 1-((S)-1-Methyl-4,5,6,7-tetrahydro-1H-indazol-5-yl)-1,6-dihydro-1,3,5,6-tetraaza-as-indacene]
25 | 2.52 | 3.92 | 8.12 | 9.37 | N#CC1(C(=O)N2CCC[C@@H](n3cnc4cnc5[nH]ccc5c43)C2)CC1 [Example 221, 1-[(R)-3-(6H-1,3,5,6-Tetraaza-as-indacen-1-yl)-piperidine-1-carbonyl]-cyclopropanecarbonitrile]
26 | 12.4 | 10.5 | 67.1 | 52.8 | O=S(=O)(c1ccccc1)N1CCC[C@@H](n2cnc3cnc4[nH]ccc4c32)C1 [Example 359, 1-((R)-1-Benzenesulfonyl-piperidin-3-yl)-1,6-dihydro-1,3,5,6-tetraaza-as-indacene]

Row | SMILES | Ki [1] [nM] | Ki [2] [nM] | Ki [3] [nM] | Ki [4] [nM]
27 | CC(C)COCc1nc2cnc3[nH]ccc3c2n1C1CCN(CCC#N)CC1 [Example 407, 3-[4-(2-Isobutoxymethyl-6H-1,3,5,6-tetraaza-as-indacen-1-yl)-piperidin-1-yl]-propionitrile] | 81.2 | 122 | 170 | 607
